Reference: the NIST ThermoML archive (doi:10.1016/j.jct.2005.02.008)
± gives the expanded uncertainty stated by the source.

Experiments:
[1] = Crystal; for mass density: 298.15 K, 101.33 kPa, Pycnometric method; for Normal melting temperature: DTA; for vapor or sublimation pressure: Calculated from knudsen effusion weight loss
[2] = molar heat capacity at constant pressure; conditions: 101.33 kPa, Crystal

c1ccc(-c2nc3ccccc3[nH]2)cc1 [2-phenylbenzimidazole]
[1]
Conditions | Normal melting temperature [°C] | mass density [kg/m3]
– | 191.0 ± 0.5 | 1060 ± 10

[2]
Conditions | molar heat capacity at constant pressure [J/K/mol]
268.15 K | 185.23 ± 7.4
270.15 K | 186.33 ± 7.5
273.15 K | 188.41 ± 7.5
275.15 K | 189.51 ± 7.6
280.15 K | 193.33 ± 7.7
285.15 K | 197.27 ± 7.9
290.15 K | 201.29 ± 8.1
295.15 K | 205.63 ± 8.2
298.15 K | 208.09 ± 8.3
300.15 K | 209.51 ± 8.4
305.15 K | 215.89 ± 8.6
310.15 K | 220.71 ± 8.8
315.15 K | 224.47 ± 9
320.15 K | 228.09 ± 9.1
325.15 K | 231.72 ± 9.3
330.15 K | 235.41 ± 9.4
335.15 K | 238.58 ± 9.5
340.15 K | 242.27 ± 9.7
345.15 K | 245.77 ± 9.8
350.15 K | 249.26 ± 10
355.15 K | 252.83 ± 10
360.15 K | 256.06 ± 10
365.15 K | 259.95 ± 10
370.15 K | 263.64 ± 11
375.15 K | 266.16 ± 11
380.15 K | 269.14 ± 11
385.15 K | 272.38 ± 11
390.15 K | 276.33 ± 11
395.15 K | 280.47 ± 11
400.15 K | 285 ± 11
405.15 K | 288.95 ± 12
410.15 K | 292.32 ± 12
415.15 K | 295.82 ± 12
420.15 K | 300.09 ± 12
425.15 K | 304.1 ± 12
430.15 K | 308.05 ± 12
435.15 K | 312.13 ± 12
440.15 K | 316.02 ± 13
445.15 K | 319.51 ± 13
450.15 K | 322.1 ± 13

c1ccc(Cc2nc3ccccc3[nH]2)cc1 [bendazol]
[1]
Conditions | Normal melting temperature [°C] | mass density [kg/m3]
– | 297.4 ± 0.5 | 1140 ± 10

Conditions | molar heat capacity at constant pressure [J/K/mol] | vapor or sublimation pressure [kPa]
[1], 393.54 K | – | 0.000125 ± 6e-06
[1], 396.81 K | – | 0.000178 ± 9e-06
[1], 400.16 K | – | 0.000248 ± 1.2e-05
[1], 402.04 K | – | 0.000299 ± 1.5e-05
[1], 405.47 K | – | 0.000419 ± 2.1e-05
[1], 409 K | – | 0.000596 ± 3e-05
[1], 412.48 K | – | 0.000829 ± 4.1e-05
[2], 270.15 K | 215.86 ± 8.6 | –
[2], 273.15 K | 218.67 ± 8.8 | –
[2], 275.15 K | 220.51 ± 8.8 | –
[2], 280.15 K | 223.25 ± 8.9 | –
[2], 285.15 K | 227.59 ± 9.1 | –
[2], 290.15 K | 228.63 ± 9.2 | –
[2], 295.15 K | 228.79 ± 9.2 | –
[2], 298.15 K | 228.92 ± 9.2 | –
[2], 300.15 K | 229.04 ± 9.2 | –
[2], 305.15 K | 231.75 ± 9.3 | –
[2], 310.15 K | 233.79 ± 9.3 | –
[2], 315.15 K | 237.21 ± 9.5 | –
[2], 320.15 K | 240.29 ± 9.6 | –
[2], 325.15 K | 244.91 ± 9.8 | –
[2], 330.15 K | 248.5 ± 9.9 | –
[2], 335.15 K | 252.54 ± 10 | –
[2], 340.15 K | 255.29 ± 10 | –
[2], 345.15 K | 260.53 ± 10 | –
[2], 350.15 K | 261.16 ± 10 | –
[2], 355.15 K | 264.99 ± 11 | –
[2], 360.15 K | 269.16 ± 11 | –
[2], 365.15 K | 272.11 ± 11 | –
[2], 370.15 K | 283.19 ± 11 | –
[2], 375.15 K | 285.9 ± 11 | –
[2], 380.15 K | 289.9 ± 12 | –
[2], 385.15 K | 293.81 ± 12 | –
[2], 390.15 K | 298.39 ± 12 | –
[2], 395.15 K | 303.73 ± 12 | –
[2], 400.15 K | 307.64 ± 12 | –
[2], 405.15 K | 312.35 ± 12 | –
[2], 410.15 K | 314.26 ± 13 | –
[2], 415.15 K | 322.84 ± 13 | –
[2], 420.15 K | 329.18 ± 13 | –
[2], 425.15 K | 333.59 ± 13 | –
[2], 430.15 K | 342.59 ± 14 | –
[2], 435.15 K | 349.42 ± 14 | –
[2], 440.15 K | 359.96 ± 14 | –
